Assay results taken from paper PMC7111419 (European Journal of Medicinal Chemistry, 2019).
pIC50: −log10 of the molar value. Converted amounts (≈) assume the structure as drawn. Like-named read-outs stand apart in the source and are kept apart here.

Columns and labels:
[1] = tested on: whole human gut bacterial βGLU (eight bacterial isolates); conditions: cited from earlier work
βGLU [2] = type: biochemical
E. coli βGLU = conditions: cited from earlier work
βGLU [3] = conditions: cited from earlier work
rat liver βGLU = conditions: cited from earlier work
male Wister rats = conditions: cited from earlier work; for tumour size: from 2 cm
[4] = […] test concentration, US 7,294,330 B2

Q: Which results are given for `CC(C)=CC[C@]12Oc3cc(O)c([C@H]4C=C(C)C[C@H](c5ccc(O)cc5O)[C@H]4C(=O)c4ccc(O)cc4O)c(O)c3C(=O)[C@@]1(O)Oc1cc(O)ccc12` [Compound 20, Sanggenon C]?
A: pIC50 [1]: 4.90; inhibition [1]: > 70%

Q: For `O=C(N/N=C/c1c(O)cc(O)cc1O)c1cc2cc(Cl)ccc2[nH]1` [Compound 128], which “fold stronger than corresponding oxadiazole variant of compound 115 library” value (βGLU [2]) is on record?
A: 3 fold

Q: Which “inhibition of E. coli βGLU” value (E. coli βGLU; [4]) does the source give for `NCC(=O)[O-].NCC(=O)[O-].[Zn+2]` [zinc glycinate] here?
A: 99%

Q: For `C[C@]12C=CC(=O)C=C1CC[C@@H]1[C@@H]2CC[C@@]2(C)[C@H]1CC[C@]2(C)O` [dianabol, reference compound], which IC50 (βGLU [3]) is on record?
A: inactive

Q: With `C[C@]12C=C/C(=N\O)C=C1CC[C@H]1[C@@H]3[C@@H](O)C[C@](C)(O)[C@@]3(C)CC[C@@H]12` [Compound 49] as the molecule, how does the “fold superior than Z-isomer” value (βGLU [2]) read?
A: 2 fold

Q: Which “inhibition of E. coli βGLU” value (E. coli βGLU; 0.001 wt%) does the source give for `O=C1CCCCCC/C=C/CCCCCCC1` [Compound 191] here?
A: 95.8%

Q: What about the “inhibition of E. coli βGLU” value (E. coli βGLU; 0.1 wt% in dipropylene glycol) of the same molecule?
A: 100%

Q: For `O=C(N/N=C/c1ccccc1F)c1cc2cc(Cl)ccc2[nH]1` [Compound 129], which “fold stronger than corresponding oxadiazole variant of compound 115 library” value (βGLU [2]) is on record?
A: 43 fold

Q: With `O=C(Cn1c(-c2ccccn2)nc2ccccc21)c1ccccc1[N+](=O)[O-]` [Compound 112] as the molecule, how does the pIC50 (βGLU [3]) read?
A: 5.39

Q: With `CCCCCCO[C@H]1C[C@](Cl)(CO)[C@@H](O)[C@H](O)[C@H]1NC(C)=O` [Compound 75] as the molecule, how does the pIC50 (E. coli βGLU) read?
A: 3.77

Q: With `O=c1c(-c2ccc(O)cc2)coc2cc(O[C@@H]3O[C@H](CO)[C@@H](O)[C@H](O)[C@H]3O)ccc12` [daidzin] as the molecule, how does the IC50 (rat liver βGLU) read?
A: inactive

Q: And the IC50 (E. coli βGLU)?
A: inactive

Q: Which results are given for `CC(C)=CCc1c(-c2ccc(O)cc2O)oc2c([C@H]3C=C(C)C[C@@H](c4ccc(O)cc4O)[C@@H]3C(=O)c3ccc(O)cc3O)c(O)cc(O)c2c1=O` [Compound 21, Kuwanon G]?
A: pIC50 [1]: 5.13; inhibition [1]: > 70%

Q: With `O=c1cc(-c2ccc(O)c(O)c2)oc2cc(O)cc(O)c12` [Compound 11, Luteolin] as the molecule, how does the “bacterial βGLU activity” value (male Wister rats; 0.1, 0.2 or 0.3 mg/kg body weight/day p.o., 30 weeks, vs DMH-controls) read?
A: significantly reduced

Q: What about the “reduction in tumour incidence” value (male Wister rats) of the same molecule?
A: up to 90%

Q: What about the tumour size (male Wister rats; initiation stage) of the same molecule?
A: 0.25 cm

Q: And the tumour size (male Wister rats; post-initiation stage)?
A: 0.50 cm

Q: With `COc1ccc(C[C@@H]2CCC[C@@H]3[C@H](O)[C@@H](O)[C@H](CO)N23)cc1` [Compound 74] as the molecule, how does the inhibition (E. coli βGLU; 1 mM) read?
A: < 50%

Q: For `COC(=O)[C@]1(Cc2ccc(O)c(C=O)c2)OC(=O)C(O)=C1c1ccc(O)cc1` [Compound 8], which “fold stronger potency than prenylated isomer (9)” value (βGLU [2]) is on record?
A: 16 fold

Q: What about the “fold superior potency compared to D-SAL” value (βGLU [2]) of the same molecule?
A: 8 fold

Q: With `O=c1c2cc(O)c(O)cc2oc2cc(O)c([C@@H]3O[C@H](CO)[C@@H](O)[C@H](O)[C@H]3O)c(O)c12` [Compound 40, mangiferin] as the molecule, how does the pIC50 (βGLU [3]) read?
A: 4.42

Q: With `O=C([O-])[C@H](O)[C@@H](O)[C@H](O)[C@H](O)CO.O=C([O-])[C@H](O)[C@@H](O)[C@H](O)[C@H](O)CO.[Zn+2]` [zinc gluconate] as the molecule, how does the “inhibition of E. coli βGLU” value (E. coli βGLU; [4]) read?
A: 97%

Q: With `COc1ccccc1-c1nnc(-c2ccc(C(=O)NNS(=O)(=O)c3cc(Cl)c(Cl)cc3Cl)cc2)o1` [Compound 116] as the molecule, how does the pIC50 (βGLU [3]) read?
A: 5.85

Q: Which IC50 (rat liver βGLU) does the source give for `O=c1c(-c2ccc(O)cc2)coc2c([C@@H]3O[C@H](CO)[C@@H](O)[C@H](O)[C@H]3O)c(O)ccc12` [puerarin] here?
A: inactive

Q: And the IC50 (E. coli βGLU)?
A: inactive

Q: Which IC50 (rat liver βGLU) does the source give for `O=c1c(-c2ccc(O)cc2)coc2cc(O)ccc12` [Compound 41, daidzein] here?
A: 500 µg/mL (≈ 1970 µM)

Q: And the IC50 (E. coli βGLU)?
A: 410 µg/mL

Q: With `CCCC[C@H]1NC[C@@H](O)[C@@H](O)[C@H](O)[C@H]1O` [Compound 85] as the molecule, how does the pIC50 (E. coli βGLU) read?
A: 3.58

Q: For `C=CCc1ccc(O)c(OC)c1` [Compound 39, eugenol], which IC50 (βGLU [3]) is on record?
A: 616.68 µg/mL

Q: For `Oc1ccccc1-c1nc2cc(Cl)cc(Cl)c2[nH]1` [Compound 111], which “fold potency vs D-SAL” value (βGLU [2]) is on record?
A: 11 fold

Q: With `O=C(Cn1c(-c2ccccn2)nc2ccccc21)c1ccc(F)cc1` [Compound 4-F] as the molecule, how does the pIC50 (βGLU [3]) read?
A: 4.58
